In brackets after ≈: the same amount, converted by molar mass. Activity calls are given as the source filed them. The rule behind the calls is not given here.
Tested on: Klebsiella pneumoniae
Assay: Antibacterial activity against Klebsiella pneumoniae ATCC 700603 assessed as inhibition of bacterial growth incubated for 18 hrs by broth microdilution method
Format: functional

Structure (SMILES) | Activity
O=C(Nc1cccc(Cl)c1)NC1CCN(CCC(Oc2cccc(F)c2)c2ccccc2)CC1 (racemic) | inactive
COc1ccccc1OC(CCN1CCC(NC(=O)Nc2cccc(Cl)c2)CC1)c1ccccc1 (centres undefined) | inactive
O=C(Nc1cccc(Cl)c1)N1CCN(CCC(Oc2ccc(C(F)(F)F)cc2)c2ccccc2)CC1 (racemic) | inactive
O=C(Nc1cccc(Cl)c1)NC1CCN(CCC(Oc2ccccc2C(F)(F)F)c2ccccc2)CC1 (racemic) | inactive
O=C(Nc1cccc(Cl)c1)NC1CCN(CCC(Oc2ccc(C(F)(F)F)cc2)c2ccccc2)CC1 (centres undefined) | inactive

Tested on: Staphylococcus aureus
Assay: Antibacterial activity against vancomycin-intermediate Staphylococcus aureus ATCC 700699 assessed as inhibition of bacterial growth incubated for 18 hrs by broth microdilution method
Format: functional

Structure (SMILES) | MIC [µg/mL]
O=C(Nc1cccc(Cl)c1)NC1CCN(CCC(Oc2cccc(F)c2)c2ccccc2)CC1 (racemic) | 6.25 (≈ 13 µM)
COc1ccccc1OC(CCN1CCC(NC(=O)Nc2cccc(Cl)c2)CC1)c1ccccc1 (centres undefined) | > 12.5
O=C(Nc1cccc(Cl)c1)N1CCN(CCC(Oc2ccc(C(F)(F)F)cc2)c2ccccc2)CC1 (racemic) | > 12.5
O=C(Nc1cccc(Cl)c1)NC1CCN(CCC(Oc2ccccc2C(F)(F)F)c2ccccc2)CC1 (racemic) | 3.12 (≈ 5.87 µM)
O=C(Nc1cccc(Cl)c1)NC1CCN(CCC(Oc2ccc(C(F)(F)F)cc2)c2ccccc2)CC1 (centres undefined) | 6.25 (≈ 11.7 µM)

Tested on: Staphylococcus aureus
Assay: Antibacterial activity against methicillin-resistant Staphylococcus aureus clinical strain 19449 assessed as inhibition of bacterial growth incubated for 18 hrs by broth microdilution method
Format: functional

Structure (SMILES) | MIC [µg/mL]
O=C(Nc1cccc(Cl)c1)NC1CCN(CCC(Oc2cccc(F)c2)c2ccccc2)CC1 (racemic) | 6.25 (≈ 13 µM)
COc1ccccc1OC(CCN1CCC(NC(=O)Nc2cccc(Cl)c2)CC1)c1ccccc1 (centres undefined) | > 12.5
O=C(Nc1cccc(Cl)c1)N1CCN(CCC(Oc2ccc(C(F)(F)F)cc2)c2ccccc2)CC1 (racemic) | > 12.5
O=C(Nc1cccc(Cl)c1)NC1CCN(CCC(Oc2ccccc2C(F)(F)F)c2ccccc2)CC1 (racemic) | 3.12 (≈ 5.87 µM)
O=C(Nc1cccc(Cl)c1)NC1CCN(CCC(Oc2ccc(C(F)(F)F)cc2)c2ccccc2)CC1 (centres undefined) | 6.25 (≈ 11.7 µM)

Tested on: Escherichia coli
Assay: Antibacterial activity against Escherichia coli ATCC 25922 assessed as inhibition of bacterial growth incubated for 18 hrs by broth microdilution method
Format: functional

Structure (SMILES) | Activity
O=C(Nc1cccc(Cl)c1)NC1CCN(CCC(Oc2cccc(F)c2)c2ccccc2)CC1 (racemic) | inactive
COc1ccccc1OC(CCN1CCC(NC(=O)Nc2cccc(Cl)c2)CC1)c1ccccc1 (centres undefined) | inactive
O=C(Nc1cccc(Cl)c1)N1CCN(CCC(Oc2ccc(C(F)(F)F)cc2)c2ccccc2)CC1 (racemic) | inactive
O=C(Nc1cccc(Cl)c1)NC1CCN(CCC(Oc2ccccc2C(F)(F)F)c2ccccc2)CC1 (racemic) | inactive
O=C(Nc1cccc(Cl)c1)NC1CCN(CCC(Oc2ccc(C(F)(F)F)cc2)c2ccccc2)CC1 (centres undefined) | inactive

Tested on: Staphylococcus epidermidis
Assay: Antibacterial activity against methicillin-susceptible Staphylococcus epidermidis ATCC 12228 assessed as inhibition of bacterial growth incubated for 18 hrs by broth microdilution method
Format: functional

Structure (SMILES) | MIC [µg/mL]
O=C(Nc1cccc(Cl)c1)NC1CCN(CCC(Oc2cccc(F)c2)c2ccccc2)CC1 (racemic) | 6.25 (≈ 13 µM)
COc1ccccc1OC(CCN1CCC(NC(=O)Nc2cccc(Cl)c2)CC1)c1ccccc1 (centres undefined) | > 12.5
O=C(Nc1cccc(Cl)c1)N1CCN(CCC(Oc2ccc(C(F)(F)F)cc2)c2ccccc2)CC1 (racemic) | > 12.5
O=C(Nc1cccc(Cl)c1)NC1CCN(CCC(Oc2ccccc2C(F)(F)F)c2ccccc2)CC1 (racemic) | 12.5 (≈ 23.5 µM)
O=C(Nc1cccc(Cl)c1)NC1CCN(CCC(Oc2ccc(C(F)(F)F)cc2)c2ccccc2)CC1 (centres undefined) | 0.78 (≈ 1.47 µM)

Tested on: Pseudomonas aeruginosa
Assay: Antibacterial activity against Pseudomonas aeruginosa ATCC 27853 assessed as inhibition of bacterial growth incubated for 18 hrs by broth microdilution method
Format: functional

Structure (SMILES) | Activity
O=C(Nc1cccc(Cl)c1)NC1CCN(CCC(Oc2cccc(F)c2)c2ccccc2)CC1 (racemic) | inactive
COc1ccccc1OC(CCN1CCC(NC(=O)Nc2cccc(Cl)c2)CC1)c1ccccc1 (centres undefined) | inactive
O=C(Nc1cccc(Cl)c1)N1CCN(CCC(Oc2ccc(C(F)(F)F)cc2)c2ccccc2)CC1 (racemic) | inactive
O=C(Nc1cccc(Cl)c1)NC1CCN(CCC(Oc2ccccc2C(F)(F)F)c2ccccc2)CC1 (racemic) | inactive
O=C(Nc1cccc(Cl)c1)NC1CCN(CCC(Oc2ccc(C(F)(F)F)cc2)c2ccccc2)CC1 (centres undefined) | inactive

Tested on: Staphylococcus aureus
Assay: Antibacterial activity against biofilm producer Staphylococcus aureus RN450 assessed as inhibition of bacterial growth incubated for 18 hrs by broth microdilution method
Format: functional

Structure (SMILES) | MIC [µg/mL]
O=C(Nc1cccc(Cl)c1)NC1CCN(CCC(Oc2cccc(F)c2)c2ccccc2)CC1 (racemic) | 3.12 (≈ 6.48 µM)
COc1ccccc1OC(CCN1CCC(NC(=O)Nc2cccc(Cl)c2)CC1)c1ccccc1 (centres undefined) | > 12.5
O=C(Nc1cccc(Cl)c1)N1CCN(CCC(Oc2ccc(C(F)(F)F)cc2)c2ccccc2)CC1 (racemic) | > 12.5
O=C(Nc1cccc(Cl)c1)NC1CCN(CCC(Oc2ccccc2C(F)(F)F)c2ccccc2)CC1 (racemic) | 3.12 (≈ 5.87 µM)
O=C(Nc1cccc(Cl)c1)NC1CCN(CCC(Oc2ccc(C(F)(F)F)cc2)c2ccccc2)CC1 (centres undefined) | 3.12 (≈ 5.87 µM)

Tested on: Staphylococcus epidermidis
Assay: Antibacterial activity against linezolid-resistant Staphylococcus epidermidis NIL 4399/19 assessed as inhibition of bacterial growth incubated for 18 hrs by broth microdilution method
Format: functional

Structure (SMILES) | MIC [µg/mL]
O=C(Nc1cccc(Cl)c1)NC1CCN(CCC(Oc2cccc(F)c2)c2ccccc2)CC1 (racemic) | 6.25 (≈ 13 µM)
COc1ccccc1OC(CCN1CCC(NC(=O)Nc2cccc(Cl)c2)CC1)c1ccccc1 (centres undefined) | > 12.5
O=C(Nc1cccc(Cl)c1)N1CCN(CCC(Oc2ccc(C(F)(F)F)cc2)c2ccccc2)CC1 (racemic) | > 12.5
O=C(Nc1cccc(Cl)c1)NC1CCN(CCC(Oc2ccccc2C(F)(F)F)c2ccccc2)CC1 (racemic) | 3.12 (≈ 5.87 µM)
O=C(Nc1cccc(Cl)c1)NC1CCN(CCC(Oc2ccc(C(F)(F)F)cc2)c2ccccc2)CC1 (centres undefined) | 3.12 (≈ 5.87 µM)

Tested on: Enterococcus faecalis
Assay: Antibacterial activity against Enterococcus faecalis ATCC 29212 assessed as inhibition of bacterial growth incubated for 18 hrs by broth microdilution method
Format: functional

Structure (SMILES) | MIC [µg/mL]
O=C(Nc1cccc(Cl)c1)NC1CCN(CCC(Oc2cccc(F)c2)c2ccccc2)CC1 (racemic) | 6.25 (≈ 13 µM)
O=C(Nc1cccc(Cl)c1)NC1CCN(CCC(Oc2ccc(C(F)(F)F)cc2)c2ccccc2)CC1 (centres undefined) | 6.25 (≈ 11.7 µM)

Tested on: Staphylococcus epidermidis
Assay: Antibacterial activity against biofilm producer Staphylococcus epidermidis ATCC 35984 assessed as inhibition of bacterial growth incubated for 18 hrs by broth microdilution method
Format: functional

Structure (SMILES) | MIC [µg/mL]
O=C(Nc1cccc(Cl)c1)NC1CCN(CCC(Oc2cccc(F)c2)c2ccccc2)CC1 (racemic) | 3.12 (≈ 6.48 µM)
COc1ccccc1OC(CCN1CCC(NC(=O)Nc2cccc(Cl)c2)CC1)c1ccccc1 (centres undefined) | 12.5 (≈ 25.3 µM)
O=C(Nc1cccc(Cl)c1)N1CCN(CCC(Oc2ccc(C(F)(F)F)cc2)c2ccccc2)CC1 (racemic) | > 12.5
O=C(Nc1cccc(Cl)c1)NC1CCN(CCC(Oc2ccccc2C(F)(F)F)c2ccccc2)CC1 (racemic) | > 12.5
O=C(Nc1cccc(Cl)c1)NC1CCN(CCC(Oc2ccc(C(F)(F)F)cc2)c2ccccc2)CC1 (centres undefined) | 3.12 (≈ 5.87 µM)

Tested on: Staphylococcus aureus
Assay: Antibacterial activity against methicillin-susceptible Staphylococcus aureus ATCC 25923 assessed as inhibition of bacterial growth incubated for 18 hrs by broth microdilution method
Format: functional

Structure (SMILES) | MIC [µg/mL]
O=C(Nc1cccc(Cl)c1)NC1CCN(CCC(Oc2cccc(F)c2)c2ccccc2)CC1 (racemic) | 6.25 (≈ 13 µM)
COc1ccccc1OC(CCN1CCC(NC(=O)Nc2cccc(Cl)c2)CC1)c1ccccc1 (centres undefined) | > 12.5
O=C(Nc1cccc(Cl)c1)N1CCN(CCC(Oc2ccc(C(F)(F)F)cc2)c2ccccc2)CC1 (racemic) | > 12.5
O=C(Nc1cccc(Cl)c1)NC1CCN(CCC(Oc2ccccc2C(F)(F)F)c2ccccc2)CC1 (racemic) | 3.12 (≈ 5.87 µM)
O=C(Nc1cccc(Cl)c1)NC1CCN(CCC(Oc2ccc(C(F)(F)F)cc2)c2ccccc2)CC1 (centres undefined) | 0.78 (≈ 1.47 µM)

Tested on: Enterococcus faecium
Assay: Antibacterial activity against vancomycin-resistant Enterococcus faecium assessed as inhibition of bacterial growth incubated for 18 hrs by broth microdilution method
Format: functional

Structure (SMILES) | MIC [µg/mL]
O=C(Nc1cccc(Cl)c1)NC1CCN(CCC(Oc2cccc(F)c2)c2ccccc2)CC1 (racemic) | 1.56 (≈ 3.24 µM)
O=C(Nc1cccc(Cl)c1)NC1CCN(CCC(Oc2ccc(C(F)(F)F)cc2)c2ccccc2)CC1 (centres undefined) | 1.56 (≈ 2.93 µM)

Tested on: Streptococcus pneumoniae
Assay: Antibacterial activity against Streptococcus pneumoniae ATCC 49619 assessed as inhibition of bacterial growth incubated for 18 hrs by broth microdilution method
Format: functional

Structure (SMILES) | MIC [µg/mL]
O=C(Nc1cccc(Cl)c1)NC1CCN(CCC(Oc2cccc(F)c2)c2ccccc2)CC1 (racemic) | 12.5 (≈ 25.9 µM)
COc1ccccc1OC(CCN1CCC(NC(=O)Nc2cccc(Cl)c2)CC1)c1ccccc1 (centres undefined) | > 12.5
O=C(Nc1cccc(Cl)c1)N1CCN(CCC(Oc2ccc(C(F)(F)F)cc2)c2ccccc2)CC1 (racemic) | > 12.5
O=C(Nc1cccc(Cl)c1)NC1CCN(CCC(Oc2ccccc2C(F)(F)F)c2ccccc2)CC1 (racemic) | 12.5 (≈ 23.5 µM)
O=C(Nc1cccc(Cl)c1)NC1CCN(CCC(Oc2ccc(C(F)(F)F)cc2)c2ccccc2)CC1 (centres undefined) | > 12.5

Source: ChEMBL document CHEMBL5346933, “Design and synthesis of novel arylurea derivatives of aryloxy(1-phenylpropyl) alicyclic diamines with antimicrobial activity against multidrug-resistant Gram-positive bacteria” (Eur J Med Chem, 2023)
